In ChEMBL document CHEMBL3112424, “Discovery and optimization of pyrimidone indoline amide PI3Kβ inhibitors for the treatment of phosphatase and tensin homologue (PTEN)-deficient cancers” (J Med Chem, 2014):

How the values were obtained:
[1] = Plasma concentration in SCID mouse xenografted with PTEN-deficient human PC3 cells at 100 mg/kg, po after 16 hrs; assay type: ADME, organism-based, PC-3; parameters: dose 100 mg/kg, route oral
[2] = Cmax in nude rat at 3 mg/kg, iv; assay type: ADME, organism-based; parameters: dose 3 mg/kg, route intravenous; details: in vivo
[3] = AUC (infinity) in Beagle dog at 10 mg/kg, po; assay type: ADME, organism-based, Canis lupus familiaris; parameters: time infinity, dose 10 mg/kg, route oral; details: plasma
Mus musculus [4] = test: Toxicity in SCID mouse xenografted with BRAF-V600E/PTEN-deficient human UACC62 cells assessed as body weight loss at 150 mg/kg, po bid; assay type: organism-based, UACC-62; parameters: dose 150 mg/kg, route oral; details: in vivo
[5] = biological target: T1, Phosphatidylinositol 3-kinase C2 domain-containing subunit gamma (Homo sapiens, UniProt O75747); test: Inhibition of PI3KC2gamma (unknown origin)
T1 sequence (O75747 whole entry): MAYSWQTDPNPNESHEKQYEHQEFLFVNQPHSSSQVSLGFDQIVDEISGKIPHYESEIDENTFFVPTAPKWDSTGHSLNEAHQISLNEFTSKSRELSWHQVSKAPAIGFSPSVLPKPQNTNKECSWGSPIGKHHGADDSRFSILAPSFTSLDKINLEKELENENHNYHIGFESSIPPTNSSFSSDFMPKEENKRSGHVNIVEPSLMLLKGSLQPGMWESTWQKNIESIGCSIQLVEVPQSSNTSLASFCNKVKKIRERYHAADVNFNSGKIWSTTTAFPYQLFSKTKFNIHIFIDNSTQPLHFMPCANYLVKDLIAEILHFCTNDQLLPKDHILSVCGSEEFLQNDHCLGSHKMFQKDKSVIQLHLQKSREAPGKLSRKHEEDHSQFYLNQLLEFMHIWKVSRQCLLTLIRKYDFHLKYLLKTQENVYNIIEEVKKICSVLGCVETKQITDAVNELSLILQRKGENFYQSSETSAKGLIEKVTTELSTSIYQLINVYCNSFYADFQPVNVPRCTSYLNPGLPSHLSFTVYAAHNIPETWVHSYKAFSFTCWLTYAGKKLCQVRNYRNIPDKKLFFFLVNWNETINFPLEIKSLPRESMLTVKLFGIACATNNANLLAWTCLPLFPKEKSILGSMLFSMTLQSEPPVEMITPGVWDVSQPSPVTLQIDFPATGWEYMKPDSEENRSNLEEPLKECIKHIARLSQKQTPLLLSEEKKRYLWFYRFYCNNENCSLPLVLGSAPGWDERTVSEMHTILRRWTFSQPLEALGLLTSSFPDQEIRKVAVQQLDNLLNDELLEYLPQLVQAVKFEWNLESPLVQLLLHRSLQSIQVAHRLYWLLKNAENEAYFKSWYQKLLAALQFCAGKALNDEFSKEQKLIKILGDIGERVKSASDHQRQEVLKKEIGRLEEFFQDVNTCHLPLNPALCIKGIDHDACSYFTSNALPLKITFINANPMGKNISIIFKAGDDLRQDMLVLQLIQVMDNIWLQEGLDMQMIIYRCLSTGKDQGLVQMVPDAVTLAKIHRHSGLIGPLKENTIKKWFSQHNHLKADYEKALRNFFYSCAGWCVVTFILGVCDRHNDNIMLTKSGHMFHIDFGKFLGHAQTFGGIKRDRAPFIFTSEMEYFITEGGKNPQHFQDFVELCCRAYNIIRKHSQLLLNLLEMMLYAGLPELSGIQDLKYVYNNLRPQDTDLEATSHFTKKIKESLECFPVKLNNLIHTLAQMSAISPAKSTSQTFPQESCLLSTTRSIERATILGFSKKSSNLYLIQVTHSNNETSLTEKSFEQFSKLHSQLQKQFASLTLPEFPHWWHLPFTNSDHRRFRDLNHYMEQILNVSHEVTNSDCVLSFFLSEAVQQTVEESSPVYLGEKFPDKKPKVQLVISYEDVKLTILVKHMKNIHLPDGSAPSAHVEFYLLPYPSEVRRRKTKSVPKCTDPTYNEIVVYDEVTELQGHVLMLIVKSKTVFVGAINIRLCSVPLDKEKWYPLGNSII

[6] = Cmax in Beagle dog at 10 mg/kg, po; assay type: ADME, organism-based, Canis lupus familiaris; parameters: dose 10 mg/kg, route oral; details: in vivo
[7] = Plasma concentration in SCID mouse xenografted with PTEN-deficient human PC3 cells at 100 mg/kg, po after 1 hr; assay type: ADME, organism-based, PC-3; parameters: dose 100 mg/kg, route oral
[8] = Fraction unbound in SCID mouse plasma xenografted with PTEN-deficient human PC3 cells at 100 mg/kg, po; assay type: ADME, organism-based, PC-3; parameters: dose 100 mg/kg, route oral
[9] = AUC (infinity) in Beagle dog at 3 mg/kg, iv; assay type: ADME, organism-based, Canis lupus familiaris; parameters: time infinity, dose 3 mg/kg, route intravenous; details: plasma
[10] = Apparent terminal half life in Balb/c mouse plasma at 10 mg/kg, po by LC-MS/MS analysis; assay type: ADME, organism-based; parameters: dose 10 mg/kg, route oral; details: read-out: betat1/2(app) (converted)
[11] = Volume of distribution at steady state in Balb/c mouse plasma at 3 mg/kg, iv by LC-MS/MS analysis; assay type: ADME, organism-based; parameters: dose 3 mg/kg, route intravenous; details: read-out: Vdss
[12] = Tmax in Balb/c mouse plasma at 100 mg/kg, po by LC-MS/MS analysis; assay type: ADME, organism-based; parameters: dose 100 mg/kg, route oral
[13] = Tmax in Beagle dog at 3 mg/kg, iv; assay type: ADME, organism-based, Canis lupus familiaris; parameters: dose 3 mg/kg, route intravenous; details: in vivo
Plasma = test: Fraction unbound in SCID mouse plasma xenografted with BRAF-V600E/PTEN-deficient human UACC62 cells at 100 mg/kg, po; assay type: ADME, organism-based, UACC-62; parameters: dose 100 mg/kg, route oral; details: in vivo
[14] = Plasma concentration in Balb/c mouse at 100 mg/kg, po measured for 12 hrs; assay type: ADME, organism-based; parameters: dose 100 mg/kg, route oral
[15] = AUC (infinity) in Balb/c mouse plasma at 10 mg/kg, po by LC-MS/MS analysis; assay type: ADME, organism-based; parameters: time infinity, dose 10 mg/kg, route oral
[16] = Apparent permeability in human Caco2 cells at 5 uM after 20 mins; details: Caco-2
[17] = Clearance in Balb/c mouse plasma at 3 mg/kg, iv by LC-MS/MS analysis; assay type: ADME, organism-based; parameters: dose 3 mg/kg, route intravenous
[18] = AUC (infinity) in nude rat at 3 mg/kg, iv; assay type: ADME, organism-based; parameters: time infinity, dose 3 mg/kg, route intravenous; details: plasma
Mus musculus [19] = test: Toxicity in SCID mouse xenografted with BRAF-V600E/PTEN-deficient human UACC62 cells at 150 mg/kg, po bid; assay type: organism-based, UACC-62; parameters: dose 150 mg/kg, route oral; details: in vivo
[20] = Plasma concentration in Balb/c mouse at 100 mg/kg, po measured for 5 hrs; assay type: ADME, organism-based; parameters: dose 100 mg/kg, route oral
[21] = Cmax in nude rat at 10 mg/kg, po; assay type: ADME, organism-based; parameters: dose 10 mg/kg, route oral; details: in vivo
[22] = Half life in Beagle dog at 3 mg/kg, iv; assay type: ADME, organism-based, Canis lupus familiaris; parameters: dose 3 mg/kg, route intravenous; details: in vivo
UACC-62 = test: Antitumor activity against BRAF-V600E/PTEN-deficient human UACC62 cells xenografted in SCID mouse assessed as tumor growth inhibition at 150 mg/kg, po bid measured on day 15; assay type: functional
[23] = Cmax in Balb/c mouse plasma at 10 mg/kg, po after 15 to 30 mins by LC-MS/MS analysis; assay type: ADME, organism-based; parameters: dose 10 mg/kg, route oral
[24] = Apparent terminal half life in Balb/c mouse plasma at 3 mg/kg, iv by LC-MS/MS analysis; assay type: ADME, organism-based; parameters: dose 3 mg/kg, route intravenous; details: read-out: betat1/2(app) (converted)
[25] = biological target: Phosphatidylinositol 4,5-bisphosphate 3-kinase catalytic subunit beta isoform (Homo sapiens, UniProt P42338); test: Inhibition of PI3Kbeta-mediated Akt phosphorylation at S473 in PTEN-deficient human PC3 cells after 0.5 to 2 hrs by Immunoblotting assay; assay type: cell-based, PC-3
[26] = biological target: Serine/threonine-protein kinase mTOR (Homo sapiens, UniProt P42345); test: Inhibition of mTOR (unknown origin)

Chain of Phosphatidylinositol 4,5-bisphosphate 3-kinase catalytic subunit beta isoform (P42338 whole entry, canonical isoform): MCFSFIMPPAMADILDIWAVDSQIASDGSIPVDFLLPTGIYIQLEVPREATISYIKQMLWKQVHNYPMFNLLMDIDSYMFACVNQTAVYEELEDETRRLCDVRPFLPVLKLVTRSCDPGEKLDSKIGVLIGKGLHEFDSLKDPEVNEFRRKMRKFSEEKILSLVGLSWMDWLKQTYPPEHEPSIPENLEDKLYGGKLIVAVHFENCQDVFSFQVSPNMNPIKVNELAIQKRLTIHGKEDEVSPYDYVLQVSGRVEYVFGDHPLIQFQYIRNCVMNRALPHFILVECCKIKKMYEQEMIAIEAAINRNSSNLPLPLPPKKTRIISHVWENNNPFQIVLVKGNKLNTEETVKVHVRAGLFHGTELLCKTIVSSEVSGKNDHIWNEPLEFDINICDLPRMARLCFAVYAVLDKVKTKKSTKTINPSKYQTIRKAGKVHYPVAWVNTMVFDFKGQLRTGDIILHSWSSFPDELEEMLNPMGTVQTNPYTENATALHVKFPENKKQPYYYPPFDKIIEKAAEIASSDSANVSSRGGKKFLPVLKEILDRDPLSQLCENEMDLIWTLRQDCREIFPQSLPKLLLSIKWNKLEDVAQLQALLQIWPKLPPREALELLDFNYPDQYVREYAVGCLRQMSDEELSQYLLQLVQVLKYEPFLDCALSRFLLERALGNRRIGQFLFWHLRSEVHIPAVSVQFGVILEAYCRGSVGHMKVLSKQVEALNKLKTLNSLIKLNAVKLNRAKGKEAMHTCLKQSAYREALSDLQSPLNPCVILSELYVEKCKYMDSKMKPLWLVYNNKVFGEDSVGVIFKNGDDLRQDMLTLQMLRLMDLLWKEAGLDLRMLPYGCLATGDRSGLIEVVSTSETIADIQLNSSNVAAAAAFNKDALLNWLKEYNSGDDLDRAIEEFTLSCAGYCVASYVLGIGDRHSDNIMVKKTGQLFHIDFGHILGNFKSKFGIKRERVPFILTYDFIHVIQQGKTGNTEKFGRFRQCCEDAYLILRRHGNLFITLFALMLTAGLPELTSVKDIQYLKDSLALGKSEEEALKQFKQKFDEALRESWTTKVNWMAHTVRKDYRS

**Q.** What does the source list for `C[C@H]1Cc2ccccc2N1C(=O)Cc1nc(N2CCOCC2)cc(=O)[nH]1` [SAR-260301]?
**A.** concentration at 16 h [1]: 26 nM; Cmax [2]: 1200 ng/mL; AUC(0-inf) [3]: 14000 ng·h/mL; Activity (Mus musculus [4]): Non-toxic; IC50 [5]: 3.81 µM; Cmax [6]: 4770 ng/mL; concentration at 1 h [7]: 24900 nM; fraction unbound [8]: 0.4; AUC(0-inf) [9]: 6580 ng·h/mL; half-life [10]: 84 min; Vd [11]: 1 L/kg; Tmax [12]: 15 min; Tmax [13]: 30 min; Cp(f) (Plasma): 1820 nM; concentration at 12 h [14]: > 100 nM; AUC(0-inf) [15]: 610 ng·h/mL; Papp at 20 min, 5 µM [16]: 4.8 ×10⁻⁶ cm/s; clearance [17]: 83.3 mL/min/kg; AUC(0-inf) [18]: 864 ng·h/mL; Activity (Mus musculus [19]): Non-toxic; concentration at 5 h [20]: > 1000 nM; Cmax [21]: 1460 ng/mL; half-life [22]: > 300 min; T/C (UACC-62): 39%; Cmax [23]: 848 ng/mL; half-life [24]: 52.2 min; IC50 [25]: 0.049 µM; IC50 [26]: > 10 µM
